Source: US4427686A, “Pharmacologically active benzopyranotriazole compounds” (Beecham Group Limited, priority 1980, dated 1984)

Key:
[1] = tested on: slow reacting substance of anaphylaxis, SRS-A, on isolated guinea pig ileum; assay: SRS-A Antagonism on Guinea Pig Ileum; set-up: species or system guinea pig (Dunkin Hartley male); conditions: atropine 5×10^-7 M and mepyramine 10^-6 M, sodium salt, read-out: Approximate concentration to give a 50% inhibition of a less than maximal response to SRS-A
Method: (b) antagonise the spasmogenic effects of slow reacting substance of anaphylaxis, SRS-A, on isolated guinea pig ileum.
(§1) The compounds were used in the form of their sodium salts.
(§2) Charles River Sprague Dawley male rats of 250-300 g. and Dunkin Hartley male white guinea pigs of 250-300 g. were used.
The compounds were evaluated as direct antagonists of slow reacting substance of anaphylaxis (SRS-A) by assay using the isolated guinea pig ileum.
SRS-A rat was obtained from the peritoneal cavity of the rat after passive peritoneal anaphylaxis by a method based on that of R. P. Orange, D. J. Stechschulte and K. F. Austen, J. Immunology, 105, 1087 (1970) as described by J. W. Ross, H. Smith and B. A. Spicer 1976, Increased vascular permeability during passive peritoneal anaphylaxis in the rat. Int. Arch. Allergy appl., 51, 226. The sensitising serum containing antibody was produced in rats as described by J. W. Ross et. al., ibid.
2 ml of a 1 in 5 dilution of the sensitising serum was injected by the peritoneal route into recipient rats and after 2 hours 5 ml of Tyrode's solution containing 0.4 mg/ml ovalbumin (Sigma Grade III) and 50 μg/ml heparin was injected by the same route. Five minutes after challenge the rats were stunned and bled and the peritoneal fluids collected into polycarbonate tubes in ice. After centrifugation at 150 g. for five minutes the supernatants were combined, heated in a boiling water bath for five minutes, cooled and stored at -20° C. The combined peritoneal fluids contained SRS-A and were used in the antagonism studies.
The SRS-A assays were carried out on isolated strips of guinea pig ileum in Tyrode's solution containing atropine 5×10^-7 M and mepyramine 10^-6 M as described by W. E. Brocklehurst, J. Physiology, 151, 416 (1960).
The ability of the antagonists was determined by their ability to reduce submaximal responses induced by SRS-A. The antagonists were added to the 4 ml bath in 0.1 ml volumes in aqueous solution half a minute before the addition of SRS-A and were present during induced contraction.

[2] = tested on: rat passive peritoneal anaphylaxis; assay: Rat Passive Peritoneal Anaphylaxis (PPA); assay type: in vivo, rat (Charles River Sprague Dawley male); conditions: Mean ± SEM, 5-7 rats per group, sodium salt
Description: (a) inhibit rat passive peritoneal anaphylaxis; and
as §1, §2
The method has been described previously. (Ross, Janet W., Smith, H. and Spicer, Barbara A. Increased vascular permeability during passive peritoneal anaphylaxis in the rate. Int. Arch. Allergy appl. Immun., 51, 226, 1976).
Rats were sensitised by giving an intraperitoneal injection of 0.5 ml of Bordetella pertussis vaccine (4×10^10 organisms/ml Burroughs Wellcome, London) and a subcutaneous injection of 0.5 ml of an emulsion of 100 mg of ovalbumin (chicken egg albumin, crystallised and lyophilised, grade 3, Sigma, London) in 2 ml of isotonic saline and 3 ml of Freund's incomplete adjuvant (Difco Laboratories, Michigan, USA).
The rats were bled by cardiac puncture, on day 18, the blood was pooled, and the serum separated, stored at -20° C. and thawed only once before use.
Rats were each given an intraperitoneal injection of 2 ml of a 1 in 5 dilution of the rat anti-serum in isotonic saline. Two hours later 0.3 ml of a 5% solution of Pontamine Sky Blue (Raymond A. Lamb, London) in isotonic saline was injected intravenously, followed by an intraperitoneal injection of the test compound in 1 ml of saline; (control rats received 1 ml of saline); followed 30 seconds later by an intraperitoneal injection of 5 ml of Tyrode's solution containing 50 μg/ml heparin and 0.4 mg/ml of ovalbumin. The concentrations of the compounds are quoted as those in the 6 ml of fluid injected intraperitoneally. Exactly five minutes after challenge the rats were stunned and bled and their peritoneal fluids were collected by opening their peritoneal cavities over funnels into polycarbonate tubes in ice. The supernatants were separated from the cellular residue by centrifugation at 150 g. for five minutes and were retained for assay of dye and histamine. Any samples obviously contaminated with blood were not used for estimation of dye. Groups of at least five rats were used for each dose of compound and the treatments were randomised.
Dye was assayed within two hours by measurement of optical density (OD) at 625 nm.
For histamine assay 0.5 ml samples of the supernatants were added to 1 ml volumes of 12% trichloracetic acid and stored at -20° C. The deproteinised samples were assayed using an automated spectrofluorimetric system (Technicon Autoanalyser) by a method similar to that of Evans, D. P., Lewis, J. A. and Thomson, D. S.: (An automated fluorimetric assay for the rapid determination of histamine in biological fluids. Life Sci., 12, 327, 1973).

released SRS-A = conditions: background art; cited from earlier work
[3] = tested on: release of allergic response mediators; conditions: background art; cited from earlier work

| Structure (SMILES) | IC50 [1] | Dye concentration in peritoneal fluid as % of mean of controls ([2]; 2 × 10^-5 M injected ip) | Histamine concentration in peritoneal fluid as % of mean of controls ([2]; 2 × 10^-5 M injected ip) | Dye concentration in peritoneal fluid as % of mean of controls ([2]; 2 × 10^-6 M injected ip) | Histamine concentration in peritoneal fluid as % of mean of controls ([2]; 2 × 10^-6 M injected ip) | Dye concentration in peritoneal fluid as % of mean of controls ([2]; 2 × 10^-7 M injected ip) | Histamine concentration in peritoneal fluid as % of mean of controls ([2]; 2 × 10^-7 M injected ip) | inhibition of released SRS-A (released SRS-A) | inhibition of release of allergic response mediators [3] |
| --- | --- | --- | --- | --- | --- | --- | --- | --- | --- |
| CCCc1c(OCCCOc2cccc3oc4nn[nH]c4c(=O)c23)ccc(C(C)=O)c1O [Example 4, 8-[3-(4-Acetyl-3-hydroxy-2-n-propylphenoxy)-propan-1-yloxy]-9-oxo-1H,9H-benzopyrano-[2,3-d]-v-triazole] | ~0.05 µM | 92 ± 10 % of mean of controls | 42 ± 6 % of mean of controls | 104 ± 20 % of mean of controls | 89 ± 7 % of mean of controls |  |  |  |  |
| CCCc1c(OCC(O)COc2ccc3c(=O)c4[nH]nnc4oc3c2C)ccc(C(C)=O)c1O (stereo not shown) [Example 2, 6-[3-(4-Acetyl-3-hydroxy-2-n-propylphenoxy)-2-hydroxypropan-1-yloxy]-5-methyl-9-oxo-1H,9H-benzopyrano[2,3-d]-v-triazole] | ~0.032 µM |  |  | 42 ± 5 % of mean of controls | 14 ± 2 % of mean of controls | 61 ± 7 % of mean of controls | 56 ± 1 % of mean of controls |  |  |
| CCCc1c(OCCCOc2ccc3c(=O)c4[nH]nnc4oc3c2C)ccc(C(C)=O)c1O [Example 1, 6-[3-(4-Acetyl-3-hydroxy-2-n-propylphenoxy)propan-1-yloxy]-5-methyl-9-oxo-1H,9H-benzopyrano[2,3,d]-v-triazole] | ~0.1 µM | 54 ± 7 % of mean of controls | 17 ± 2 % of mean of controls | 63 ± 5 % of mean of controls | 18 ± 2 % of mean of controls |  |  |  |  |
| CCCc1c(OCC(O)COc2ccc3c(=O)c4[nH]nnc4oc3c2)ccc(C(C)=O)c1O (stereo not shown) [Example 3, 6-[3-(4-Acetyl-3-hydroxy-2-n-propylphenoxy)-2-hydroxypropan-1-yloxy]-9-oxo-1H,9H-benzopyrano[2,3-d]-v-triazole] | ~0.063 µM |  |  | 51 ± 5 % of mean of controls | 16 ± 2 % of mean of controls | 74 ± 9 % of mean of controls | 56 ± 5 % of mean of controls |  |  |
| CCCc1c(OCC(O)COc2ccc3c(=O)cc(C(=O)O)oc3c2CCC)ccc(C(C)=O)c1O (stereo not shown) [FPL 55712] |  |  |  |  |  |  |  | inhibit released SRS-A | able to effect at least some inhibition of release of these allergic response mediators |
